Results taken from PMC3261798, “Design, Synthesis, and Biological Evaluation of PKD Inhibitors” (Pharmaceutics, 2011).
Structures can show the parent of a compound that is named as a salt.

Key:
[1] = target: T1, PKD1 (Homo sapiens, UniProt Q15139); assay: In vitro radiometric PKD kinase activity assay; type: biochemical; set-up: purchased Biomol International; conditions: for IC50: read-out: IC50 Radiometric PKD1; for inhibitory activity against PKD (in words): preliminary biological data for kmg-NB5-13 and kmg-NB5-15
T1 sequence (Q15139 1-912): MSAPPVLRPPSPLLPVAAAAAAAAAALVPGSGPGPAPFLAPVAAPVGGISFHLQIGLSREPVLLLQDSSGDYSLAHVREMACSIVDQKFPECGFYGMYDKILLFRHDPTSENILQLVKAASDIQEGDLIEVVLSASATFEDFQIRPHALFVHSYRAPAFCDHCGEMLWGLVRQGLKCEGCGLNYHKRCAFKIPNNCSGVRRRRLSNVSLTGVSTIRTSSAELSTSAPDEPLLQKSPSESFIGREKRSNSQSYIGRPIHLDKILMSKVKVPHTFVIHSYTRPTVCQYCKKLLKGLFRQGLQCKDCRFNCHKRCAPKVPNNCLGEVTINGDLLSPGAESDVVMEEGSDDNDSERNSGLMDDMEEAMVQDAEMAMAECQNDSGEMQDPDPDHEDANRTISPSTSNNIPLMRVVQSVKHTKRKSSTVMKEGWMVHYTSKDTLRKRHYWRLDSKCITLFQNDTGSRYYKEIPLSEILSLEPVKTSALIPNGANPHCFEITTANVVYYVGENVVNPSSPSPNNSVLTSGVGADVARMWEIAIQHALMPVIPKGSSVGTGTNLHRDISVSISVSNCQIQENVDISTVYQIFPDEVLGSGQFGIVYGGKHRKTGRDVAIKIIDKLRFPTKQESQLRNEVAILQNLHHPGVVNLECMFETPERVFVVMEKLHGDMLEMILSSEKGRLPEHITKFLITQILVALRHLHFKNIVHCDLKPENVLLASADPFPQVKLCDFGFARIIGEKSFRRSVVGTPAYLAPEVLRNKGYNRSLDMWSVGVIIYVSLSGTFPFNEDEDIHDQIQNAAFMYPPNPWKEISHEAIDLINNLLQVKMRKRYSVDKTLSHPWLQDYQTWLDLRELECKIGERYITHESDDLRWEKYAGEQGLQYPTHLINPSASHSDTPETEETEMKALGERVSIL
Experimental: In vitro radiometric PKD kinase assays were conducted as previously described. Briefly, 50 ng recombinant human PKD1 (Biomol International, Plymouth Meeting, PA, USA) was incubated at 30 °C for 10 min with a reaction mixture containing 2.5 μg syntide-2 (Sigma), 70 μM ATP, and 1 μCi γ-^32 P-ATP (PerkinElmer, Boston, MA, USA) in kinase buffer (50 mM Tris-HCl pH 7.5, […], and 10 mM […]). 25 μL of the reaction mixture was then spotted on Whatman P81 filter paper (Whatman Inc., Clifton, NJ, USA), and filter papers were washed three times with 0.5% phosphoric acid, dried, then counted using a Beckman LS6500 multi-purpose scintillation counter.

[2] = target: T1, PKD1; assay: IMAP-based PKD Fluorescence Polarization (FP) assay, automated HTS format; type: biochemical; conditions: mean ± SEM, n = number of independent experiments
Experimental: An automated, HTS formatted IMAP-based PKD Fluorescence Polarization (FP) assay was used to assess the specificity of the PKD analogs as previously described. […] Kinase reactions were incubated for 90 min at room temperature and stopped by the addition of IMAP binding reagent. Assay plates were then incubated for 2 h and IMAP-based FP data were captured on a Molecular Devices Spectra-Max M5 (Sunnyvale, CA, USA).

[3] = mean ± SEM, n = number of independent experiments

Structure (SMILES) | melting point | IC50 IMAP-FP PKD1 [2] | also measured
O=C1NCCCc2c1[nH]c1ccc(OCc3ccccc3)cc21 [kb-NB123-53, 3,4,5,10-Tetrahydro-7-benzyloxy-azepino[3,4-b]indol-1(2H)-one] | – | not inhibitory | –
Nc1ccc2[nH]c3c(c2c1)CCNC3=O [kb-NB142-08, 6-Amino-2,3,4,9-tetrahydro-1H-pyrido[3,4-b]indol-1-one] | 280 to 282 °C | – | IC50 [1, 3]: 15.7 ± 0.19 µM; IC50 [2]: 74.4 ± 2.2 µM
CC(=O)Oc1ccc2oc3c(c2c1)CCCN(C(C)=O)C3=O [kb-NB123-45-1, 2-Acetyl-1-oxo-2,3,4,5-tetrahydro-[1]benzoxolo[2,3-c]azepin-7-yl acetate] | 155 to 157 °C | not inhibitory | –
O=C1NCCSc2c1sc1ccc(OCc3ccccc3)cc21 [kb-NB123-66, 3,4-Dihydro-9-benzyloxy-[1]benzothieno[2,3-f]-1,4-thiazepin-5(2H)-one] | 247 to 249 °C | not inhibitory | –
COc1ccc2oc3c(c2c1)CCCN(C)C3=O [kb-NB96-04, 7-Methoxy-2-methyl-2,3,4,5-tetrahydro-[1]benzoxolo[2,3-c]azepin-1-one] | 150 to 151 °C | – | IC50 [2]: > 100 µM
CC(=O)Nc1ccc2[nH]c3c(c2c1)CCNC3=O [kb-NB123-93, N-(2,3,4,9-Tetrahydro-1-oxo-1H-pyrido[3,4-b]indol-6-yl)-acetamide] | > 300 °C | not inhibitory | –
O=C1NCCc2c1[nH]c1ccc(OCc3ccccc3)cc21 [kb-NB123-52, 2,3,4,9-Tetrahydro-6-benzyloxy-1H-pyrido[3,4-b]indol-1-one] | 208 to 210 °C | not inhibitory | –
C=CCOc1ccc2oc3c(c2c1Cl)CCCNC3=O [kb-NB96-50, 7-Allyloxy-6-chloro-2,3,4,5-tetrahydro-[1]benzoxolo[2,3-c]azepin-1-one] | 192 to 194 °C | not inhibitory | –
O=C(OCc1ccccc1)N1CCCc2c1c(=O)oc1ccc(O)cc21 [kb-NB77-91, Benzyl 9-hydroxy-5-oxo-1,2,3,4-tetrahydrochromeno[3,4-b]pyridine-4-carboxylate] | 235 to 237 °C | not inhibitory | –
CC(=O)Nc1ccc2[nH]c3c(c2c1)CCCNC3=O [kb-NB123-94] | > 300 °C | not inhibitory | –
C=CCOc1ccc2oc(=O)c3c(c2c1)CCCN3 [kb-NB77-83, 9-Allyloxy-1,2,3,4-tetrahydrochromeno[3,4-b]pyridin-5-one] | 90 to 91 °C | not inhibitory | –
COc1ccc2oc3c(c2c1)CCNC3=O [kb-NB123-32, 6-Methoxy-3,4-dihydrobenzoxolo[2,3-c]pyridin-1(2H)-one] | 237 to 241 °C | – | IC50 [2]: > 100 µM
CC(=O)Oc1ccc2oc3c(c2c1)CCCNC3=O [kb-NB123-36, 7-Acetoxy-2,3,4,5-tetrahydro-[1]benzoxolo[2,3-c]azepin-1-one] | 196 to 197 °C | – | IC50 [2]: 84.9 ± 3.21 µM
COc1ccc2oc3c(c2c1)CCN(C)C3=O [kb-NB123-37, 6-Methoxy-2-methyl-3,4-dihydrobenzoxolo[2,3-c]pyridin-1(2H)-one] | 168 to 172 °C | not inhibitory | –
CC(C)(C)[Si](C)(C)Oc1ccc2oc(=O)c3c(c2c1)CCCN3 [kb-NB77-78, 9-(tert-Butyldimethylsilyloxy)-1,2,3,4-tetrahydrochromeno[3,4-b]pyridin-5-one] | 117 to 119 °C | not inhibitory | –
CC(C)(C)[Si](C)(C)Oc1ccc2oc3c(c2c1)CCCNC3=O [kb-NB77-77, 7-(tert-Butyldimethylsilyloxy)-2,3,4,5-tetrahydro-[1]benzoxolo[2,3-c]azepin-1-one] | 209 to 212 °C | not inhibitory | –
O=C1NCCCc2c1oc1cc(Cl)c(O)cc21 [kb-NB96-47-5, 8-Chloro-7-hydroxy-2,3,4,5-tetrahydro-[1]benzoxolo[2,3-c]azepin-1-one] | 327 to 332 °C | – | –
CC=Cc1c(O)ccc2oc3c(c12)CCCNC3=O [kb-NB96-30, 6-[(E)-2-(Prop-1-enyl) ]-7-hydroxy-2,3,4,5-tetrahydro-[1]benzoxolo[2,3-c]azepin-1-one] | > 300 °C | – | –
O=C1NCCCc2c1oc1cc(Cl)c(O)c(Cl)c21 [kb-NB96-43, 6,8-Dichloro-7-hydroxy-2,3,4,5-tetrahydro-[1]benzoxolo[2,3-c]azepin-1-one] | 298 to 301 °C | not inhibitory | –
O=c1oc2ccc(O)c(Cl)c2c2c1NCCC2 [kb-NB96-47-1, 10-Chloro-9-hydroxy-1,2,3,4-tetrahydrochromeno[3,4-b]pyridin-5-one] | 211 to 213 °C | not inhibitory | –

Second part, led by results:

melting point | IC50 IMAP-FP PKD1 [2] | Structure (SMILES) | also measured
265 to 268 °C | – | CN1CCSc2c(sc3ccc(O)cc23)C1=O [kb-NB165-17, 2,3-Dihydro-4-methyl-9-hydroxy-[1]benzothieno[2,3-f]-1,4-thiazepin-5(2H)-one] | IC50 [1, 3]: 0.45 ± 0.05 µM
103 to 110 °C | not inhibitory | O=C1NCCC(=NOCc2ccccc2)c2c1oc1ccc(O)cc21 [kb-NB142-10, 5-(Benzyloxyimino)-7-hydroxy-2,3,4,5-tetrahydro-[1]benzoxolo[2,3-c]azepin-1-one] | –
230 to 232 °C (dec.) | – | Oc1ccc2oc3c(c2c1)CCCN1CCN=C31 [kb-NB165-15, 9-Hydroxy-3,5,6,7-tetrahydro-2H-benzoxolo[2,3-c]imidazo[1,2-a]azepine] | IC50 Radiometric PKD1 [1, 3]: not inhibitory
282 to 284 °C | – | CN1CCCc2c(oc3ccc(O)cc23)C1=O [kb-NB142-25, 7-Hydroxy-2-methyl-2,3,4,5-tetrahydro-[1]benzoxolo[2,3-c]azepin-1-one] | IC50 [1, 3]: 4 ± 1.1 µM
335.9 °C (dec.) | – | O=C1NCCSc2c1sc1cnc(O)nc21 (as salt: hydrochloride) [kmg-NB4-69A, 2-Hydroxy-7H,8H,9H-1,4-thiazepino[7′,6′-5,4]thiopheno[3,2-d]pyrimidin-6-one] | –
295 °C (dec.) | – | COc1nc(O)c2sc3c(c2n1)SCCNC3=O [kmg-NB5-15A, 4-Hydroxy-2-methoxy-7H,8H,9H-1,4-thiazepino[7′,6′-5,4]thiopheno[3,2-d]pyrimidin-6-one] | inhibitory activity against PKD (in words) [1]: absence of inhibitory activity
160 to 161 °C | – | COc1ccc2sc3c(c2c1)SCCN(C)C3=O [kb-NB165-16, 2,3-Dihydro-4-methyl-9-methoxy-[1]benzothieno[2,3-f]-1,4-thiazepin-5(2H)-one] | IC50 [1, 3]: 4.57 ± 0.78 µM
253 to 253.3 °C | – | O=C1NCCSc2c1sc1ccc(N=C=S)cc21 [mcf292-05, 3,4-Dihydro-9-isothiocyanato-[1]benzothieno[2,3-f]-1,4-thiazepin-5(2H)-one] | IC50 [1, 3]: 2.77 µM
288 °C (dec.) | – | COc1nc(OC)c2sc3c(c2n1)SCCNC3=O [kmg-NB5-13C, 2,4-Dimethoxy-7H,8H,9H-1,4-thiazepino[7′,6′-5,4]thiopheno[3,2-d]pyrimidin-6-one] | IC50 [1, 3]: > 30 µM; inhibitory activity against PKD (in words) [1]: absence of inhibitory activity
229 to 230 °C (dec.) | – | O=C(CCl)Nc1ccc2sc3c(c2c1)SCCNC3=O [mcf292-09, 3,4-Dihydro-9-(2-chloroacetamido)-[1]benzothieno[2,3-f]-1,4-thiazepin-5(2H)-one] | IC50 [1, 3]: 1.5 µM
220 to 224 °C | – | Cc1ccc(S(=O)(=O)NN=C2CCNC(=O)c3oc4ccc(O)cc4c32)cc1 [kb-NB142-11, 7-Hydroxy-5-[2-{(4-methylphenyl)sulfony}hydrazono]-2,3,4,5-tetrahydro-[1]benzoxolo[2,3-c]azepin-1-one] | IC50 [2]: 38.2 ± 1.17 µM
